Data on 7 compounds can be found in PubChem BioAssay (NCI).

Test systems include MDA-MB-435; HT29 colon; CCRF-CEM leukemia; SK-MEL-2 melanoma; OVCAR-3 ovarian; RXF 393 renal; U251 CNS; SF-295 CNS.
What all share (assay): NCI-60 cell line screen, 48 h

Molecules are shown by their SMILES.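 1) Cells in 96-well plates. 2) Compound, 48 h, 5 concentrations. 3) Linear interpolation between surrounding doses. 4) Unreached endpoint = highest concentration. The concentration for 50% growth inhibition is given as GI50. TGI is the concentration that stops growth completely.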 A value given as a limit tells only on which side of the number the result lay.

Turning to `CCC(CO)Nc1nc(NCc2ccccc2)c2n[nH]c(C(C)C)c2n1` (centres undefined), the GI50 in the assay with MDA-MB-435 is 10 µM; in the assay with HT29 colon, 3.88 µM; in the assay with CCRF-CEM leukemia it was 6.55 µM; with SK-MEL-2 melanoma, 5.15 µM; in the assay on OVCAR-3 ovarian it was 7.32 µM; with RXF 393 renal, 5.89 µM. The GI50 with U251 CNS was 11.4 µM; with SF-295 CNS it was 16.1 µM. Moreover, the TGI in the assay on MDA-MB-435 came to 24 µM; in the assay with HT29 colon it was 27.8 µM; with CCRF-CEM leukemia it was 52.6 µM; with SK-MEL-2 melanoma, 21.4 µM; in the assay with OVCAR-3 ovarian it was 22.7 µM; in the assay with RXF 393 renal, 21 µM. Also, the values for the TGI in the assay with U251 CNS and with SF-295 CNS were 25.3 µM and 32.7 µM, respectively.
Turning to `CC1(C)CC[C@]2(C(=O)NCCNCCN)CC[C@]3(C)C(=CC[C@@H]4[C@@]5(C)CCC(=O)C(C)(C)[C@@H]5CC[C@]43C)[C@@H]2C1`, the GI50 in the assay on MDA-MB-435 is 1.75 µM; in the assay on HT29 colon it was 1.96 µM; in the assay on CCRF-CEM leukemia, 2.51 µM; in the assay on SK-MEL-2 melanoma it was 1.94 µM; in the assay with OVCAR-3 ovarian it was 1.85 µM; in the assay with RXF 393 renal, 1.57 µM. The results for the GI50 in the assay with U251 CNS and with SF-295 CNS were 1.79 µM and 1.83 µM, respectively. The TGI was determined as 3.19 µM with MDA-MB-435; 4.43 µM in the assay on HT29 colon; 8.64 µM in the assay on CCRF-CEM leukemia; 4.05 µM with SK-MEL-2 melanoma; 3.29 µM with OVCAR-3 ovarian; 2.93 µM in the assay with RXF 393 renal. For the same compound, the TGI in the assay on U251 CNS came out at 3.46 µM; in the assay on SF-295 CNS, 3.39 µM.
Take `O=C(Nc1ccc(Cl)cc1)c1cc(NCc2cc(O)ccc2O)ccc1O`: the GI50 in the assay on MDA-MB-435 is 12 µM; in the assay with HT29 colon, 22.2 µM; with CCRF-CEM leukemia, 0.605 µM; with SK-MEL-2 melanoma, 12.2 µM; in the assay on OVCAR-3 ovarian it was 2.9 µM; with RXF 393 renal it was 2.24 µM. In addition, the GI50 was 3.96 µM in the assay with U251 CNS and 15.4 µM in the assay with SF-295 CNS. The TGI in the assay with MDA-MB-435 stood at 27.2 µM; in the assay on HT29 colon, 58.5 µM; with CCRF-CEM leukemia it was 6.79 µM; in the assay with SK-MEL-2 melanoma, 27.3 µM; in the assay with OVCAR-3 ovarian it was 9.9 µM; in the assay on RXF 393 renal it was 5.31 µM. For the same compound, the TGI was found to be 13.4 µM with U251 CNS and 36.3 µM in the assay with SF-295 CNS.
As to `N#Cc1c(N)c(C(=O)c2ccc3c(c2)OCCO3)n2c1CCCC2`, the GI50 is 0.362 µM with MDA-MB-435; 2.23 µM with HT29 colon; 3.15 µM with CCRF-CEM leukemia; 4.06 µM in the assay with SK-MEL-2 melanoma; 2.88 µM with OVCAR-3 ovarian; 2.29 µM with RXF 393 renal. The GI50 in the assay on U251 CNS is 4.07 µM; with SF-295 CNS it was 2.69 µM. Also, the TGI is 2.07 µM with MDA-MB-435; > 100 µM in the assay on HT29 colon; > 100 µM in the assay with CCRF-CEM leukemia; > 100 µM in the assay with SK-MEL-2 melanoma; > 28.3 µM in the assay on OVCAR-3 ovarian; 17.9 µM with RXF 393 renal. Also, the TGI in the assay on U251 CNS was > 100 µM; in the assay on SF-295 CNS, > 53.4 µM.
On to `C=C[C@@H]1CCC/C=C/[C@@H]2C[C@H](O)C[C@H]2[C@H](O)/C=C/C(=O)O1`, for which the GI50 with MDA-MB-435 was 0.435 µM; in the assay with HT29 colon, 0.342 µM; in the assay on CCRF-CEM leukemia, 2.42 µM; in the assay with SK-MEL-2 melanoma, 0.832 µM; with OVCAR-3 ovarian, 0.427 µM; with RXF 393 renal, 0.247 µM. For the same compound, the GI50 with U251 CNS was 0.941 µM; in the assay with SF-295 CNS it was 0.912 µM. Also, the TGI in the assay with MDA-MB-435 is > 100 µM; in the assay with HT29 colon, 1.6 µM; with CCRF-CEM leukemia, > 100 µM; in the assay on SK-MEL-2 melanoma, 8.53 µM; in the assay with OVCAR-3 ovarian it was 4.18 µM; in the assay with RXF 393 renal, 0.68 µM. Further, the TGI in the assay with U251 CNS and with SF-295 CNS was > 100 µM throughout.
Consider `COc1ccc(NC(=O)c2ccc(C(F)(F)F)nc2Nc2ccc(Cl)cc2C)cc1Cl`, for which the GI50 is 7.99 µM with MDA-MB-435; 3.57 µM in the assay with HT29 colon; 3.84 µM in the assay on CCRF-CEM leukemia; 7.33 µM in the assay on SK-MEL-2 melanoma; 3.15 µM in the assay on OVCAR-3 ovarian; 12.5 µM in the assay on RXF 393 renal. The GI50 in the assay on U251 CNS is 4.23 µM; in the assay with SF-295 CNS, 2.32 µM. The TGI in the assay with MDA-MB-435 amounted to 25.9 µM; with HT29 colon, 14 µM; in the assay on CCRF-CEM leukemia, 17.4 µM; with SK-MEL-2 melanoma, 21 µM; in the assay with OVCAR-3 ovarian, 16.2 µM; in the assay with RXF 393 renal, 26.8 µM. Further, the TGI turned out to be 14.9 µM with U251 CNS and 12.7 µM in the assay with SF-295 CNS.
Regarding `Oc1cccc2ccc(SSc3ccc4cccc(O)c4n3)nc12`, the TGI with MDA-MB-435 was 37.5 µM; with HT29 colon, 41.5 µM; in the assay with CCRF-CEM leukemia, > 100 µM; with SK-MEL-2 melanoma it was 39.9 µM; in the assay on OVCAR-3 ovarian, 34.7 µM; with RXF 393 renal, 30.8 µM. Also, the TGI with U251 CNS was 30 µM; in the assay on SF-295 CNS, 33.7 µM.
